# Tests used:
# Assay type in all cases: cell-based
# [1] = tested on: HCT-116 colorectal cancer cell line; assay: CCK-8 proliferation inhibition; conditions: Homo sapiens, HCT-116, 72 h, concentration of 30 μM; 72 hours; CCK-8; read-out: HCT116 inhibition rate/%
# Summary of the method: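 Cells were plated overnight at 2000 cells/well, then compound in culture medium was added at a range of final concentrations. After 72 hours in a CO2 incubator, medium was replaced with 1:10 CCK-8 solution for the read-out.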
# [2] = tested on: methicillin-resistant Staphylococcus epidermidis (MRSE); assay: MIC, two-fold agar dilution (CLSI), clinical isolates
# Text: (§1) 1. The invention adopts the two-fold agar dilution method recommended by the operating procedure of antimicrobial susceptibility testing set by American Clinical and Laboratory Standards Institute (CLSI) to determine the Minimum Inhibitory Concentration (MIC) of the test samples against the tested strains.
# [3] = tested on: methicillin-resistant Staphylococcus aureus (MRSA); assay: as above
# Text: as §1
# [4] = tested on: Escherichia coli (including ESBLs, non-ESBLs); assay: as above
# Text: as §1
# [5] = tested on: methicillin-sensitive Staphylococcus epidermidis (MSSE); assay: as above
# Text: as §1
# [6] = tested on: Moraxella catarrhalis (BCA); assay: as above
# Text: as §1
# [7] = tested on: Streptococcus pneoumoniae (SPN); assay: as above
# Text: as §1
# [8] = tested on: Enterococcus faecalis (EFA); assay: as above
# Text: as §1
# [9] = tested on: Enterococcus faecium (EFM); assay: as above
# Text: as §1
# [10] = tested on: methicillin-sensitive Staphylococcus aureus (MSSA); assay: as above
# Text: as §1
smiles,measurement,setting,value
"O=CN(O)C[C@@H](CC1CCCC1)C(=O)N1CC2(CC2)C[C@H]1C(=O)Nc1nncs1 [Example 41, (S)-5-((R)-3-cyclopentyl-2-((N-hydroxyformamido)methyl)propionyl)-N-(1,3,4-thiadiazol-2-yl)-5-azaspiro[2.4]heptane-6-carboxamide]",inhibition at 30 µM,[1],24%
same,"Anti-bacterial activity (MIC), strain MRSE 15-1",[2]; clinical isolate MRSE 15-1,0.5 µg/mL
same,"Anti-bacterial activity (MIC), strain MRSE 15-2",[2]; clinical isolate MRSE 15-2,1 µg/mL
same,"Anti-bacterial activity (MIC), strain MRSE 15-3",[2]; clinical isolate MRSE 15-3,1 µg/mL
same,"Anti-bacterial activity (MIC), strain MRSE 15-7",[2]; clinical isolate MRSE 15-7,1 µg/mL
same,"Anti-bacterial activity (MIC), strain MRSA 15-1",[3]; clinical isolate MRSA 15-1,0.5 µg/mL
same,"Anti-bacterial activity (MIC), strain MRSA 15-2",[3]; clinical isolate MRSA 15-2,1 µg/mL
same,"Anti-bacterial activity (MIC), strain MRSA 15-3",[3]; clinical isolate MRSA 15-3,0.5 µg/mL
same,"Anti-bacterial activity (MIC), strain MRSA 15-4",[3]; clinical isolate MRSA 15-4,1 µg/mL
same,"Anti-bacterial activity (MIC), strain ECO+ 15-1",[4]; clinical isolate ECO+ 15-1,32 µg/mL
same,"Anti-bacterial activity (MIC), strain ECO+ 15-2",[4]; clinical isolate ECO+ 15-2,32 µg/mL
same,"Anti-bacterial activity (MIC), strain ECO+ 15-3",[4]; clinical isolate ECO+ 15-3,32 µg/mL
same,"Anti-bacterial activity (MIC), strain ECO+ 15-4",[4]; clinical isolate ECO+ 15-4,32 µg/mL
same,"Anti-bacterial activity (MIC), strain ECO− 15-1",[4]; clinical isolate ECO− 15-1,32 µg/mL
same,"Anti-bacterial activity (MIC), strain ECO− 15-2",[4]; clinical isolate ECO− 15-2,32 µg/mL
same,"Anti-bacterial activity (MIC), strain ECO− 15-3",[4]; clinical isolate ECO− 15-3,32 µg/mL
same,"Anti-bacterial activity (MIC), strain ECO− 15-4",[4]; clinical isolate ECO− 15-4,32 µg/mL
same,"Anti-bacterial activity (MIC), strain MSSE 15-3",[5]; clinical isolate MSSE 15-3,1 µg/mL
same,"Anti-bacterial activity (MIC), strain MSSE 15-4",[5]; clinical isolate MSSE 15-4,1 µg/mL
same,"Anti-bacterial activity (MIC), strain MSSE 15-5",[5]; clinical isolate MSSE 15-5,1 µg/mL
same,"Anti-bacterial activity (MIC), strain MSSE 15-6",[5]; clinical isolate MSSE 15-6,1 µg/mL
same,"Anti-bacterial activity (MIC), strain BCA 14-1",[6]; clinical isolate BCA 14-1,1 µg/mL
same,"Anti-bacterial activity (MIC), strain BCA 14-4",[6]; clinical isolate BCA 14-4,2 µg/mL
same,"Anti-bacterial activity (MIC), strain BCA 14-5",[6]; clinical isolate BCA 14-5,0.25 µg/mL
same,"Anti-bacterial activity (MIC), strain BCA 14-6",[6]; clinical isolate BCA 14-6,4 µg/mL
same,"Anti-bacterial activity (MIC), strain BCA 14-7",[6]; clinical isolate BCA 14-7,1 µg/mL
same,"Anti-bacterial activity (MIC), strain BCA 14-8",[6]; clinical isolate BCA 14-8,4 µg/mL
same,"Anti-bacterial activity (MIC), strain BCA 14-10",[6]; clinical isolate BCA 14-10,0.5 µg/mL
same,"Anti-bacterial activity (MIC), strain SPN 16-2",[7]; clinical isolate SPN 16-2,0.25 µg/mL
same,"Anti-bacterial activity (MIC), strain SPN 16-4",[7]; clinical isolate SPN 16-4,4 µg/mL
same,"Anti-bacterial activity (MIC), strain EFA 15-1",[8]; clinical isolate EFA 15-1,4 µg/mL
same,"Anti-bacterial activity (MIC), strain EFA 15-2",[8]; clinical isolate EFA 15-2,4 µg/mL
same,"Anti-bacterial activity (MIC), strain EFA 15-3",[8]; clinical isolate EFA 15-3,1 µg/mL
same,"Anti-bacterial activity (MIC), strain EFA 15-4",[8]; clinical isolate EFA 15-4,4 µg/mL
same,"Anti-bacterial activity (MIC), strain EFA 15-5",[8]; clinical isolate EFA 15-5,4 µg/mL
same,"Anti-bacterial activity (MIC), strain EFA 15-6",[8]; clinical isolate EFA 15-6,4 µg/mL
same,"Anti-bacterial activity (MIC), strain EFA 15-9",[8]; clinical isolate EFA 15-9,4 µg/mL
same,"Anti-bacterial activity (MIC), strain EFM 15-1",[9]; clinical isolate EFM 15-1,1 µg/mL
same,"Anti-bacterial activity (MIC), strain EFM 15-2",[9]; clinical isolate EFM 15-2,2 µg/mL
same,"Anti-bacterial activity (MIC), strain EFM 15-3",[9]; clinical isolate EFM 15-3,0.25 µg/mL
same,"Anti-bacterial activity (MIC), strain EFM 15-4",[9]; clinical isolate EFM 15-4,1 µg/mL
same,"Anti-bacterial activity (MIC), strain EFM 15-5",[9]; clinical isolate EFM 15-5,1 µg/mL
same,"Anti-bacterial activity (MIC), strain EFM 15-6",[9]; clinical isolate EFM 15-6,2 µg/mL
same,"Anti-bacterial activity (MIC), strain MSSA 15-3",[10]; clinical isolate MSSA 15-3,1 µg/mL
same,"Anti-bacterial activity (MIC), strain MSSA 15-4",[10]; clinical isolate MSSA 15-4,0.5 µg/mL
same,"Anti-bacterial activity (MIC), strain MSSA 15-5",[10]; clinical isolate MSSA 15-5,0.5 µg/mL
same,"Anti-bacterial activity (MIC), strain MSSA 15-6",[10]; clinical isolate MSSA 15-6,0.5 µg/mL

# — patent US10738028B2, “Spiro three-membered ring, spiro five-membered ring peptide deformylase inhibitor and use thereof in antibacteria and anti-tumor” (priority 2016, dated 2020)
